Source: US4450269A, “Mono-5-substituted-3-chloro-4H-1,2,6-thiadiazin-4-one antifungal agents” (FMC Corporation, priority 1980, dated 1984)

Columns and labels:
Experiment in all cases: Spore germination test
Assay type in all cases: cell-based
[1] = system: Erysiphe polygoni; settings: EP, 48 hours
Outline: (§1)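 Compound in acetone was mixed into water agar at final 40, 10, 2.5 and 1 ppm and poured into quadrant dishes. Quadrants received spore suspension, while Erysiphe polygoni and Uromyces phaseoli spores were brushed on from infected leaves. After 48 h at 24 °C, the percentage of germinated spores was converted to a germination rating.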

[2] = system: Uromyces phaseoli; settings: UP, 48 hours
Outline: as §1

[3] = system: Alternaria solani; settings: AS, 48 hours
Outline: as §1

Structure (SMILES): Cc1cc(Cl)c(Oc2nsnc(Cl)c2=O)cc1C [Compound 58, 3-chloro-5-[(2-chloro-4,5-dimethyl)phenoxy]-4H--1,2,6-thiadiazin-4-one]
- Spore Germination Rating ([1]; 1.0 ppm): 4 (80-100)
- Spore Germination Rating ([1]; 2.5 ppm): 0 (0-10)
- Spore Germination Rating ([1]; 10 ppm): 0 (0-10)
- Spore Germination Rating ([1]; 40 ppm): 0 (0-10)
- Spore Germination Rating ([2]; 1.0 ppm): 2 (40-60)
- Spore Germination Rating ([2]; 2.5 ppm): 0 (0-10)
- Spore Germination Rating ([2]; 10 ppm): 0 (0-10)
- Spore Germination Rating ([2]; 40 ppm): 0 (0-10)
- Spore Germination Rating ([3]; 1.0 ppm): 4 (80-100)
- Spore Germination Rating ([3]; 2.5 ppm): 3 (60-80)
- Spore Germination Rating ([3]; 10 ppm): 0 (0-10)
- Spore Germination Rating ([3]; 40 ppm): 0 (0-10)

Structure (SMILES): Cc1cc(Oc2nsnc(Cl)c2=O)cc(C)c1Cl [Compound 59, 3-chloro-5-[(4-chloro-3,5-dimethyl)phenoxy]-4H--1,2,6-thiadiazin-4-one]
- Spore Germination Rating ([1]; 1.0 ppm): 2 (40-60)
- Spore Germination Rating ([1]; 2.5 ppm): 1 (10-40)
- Spore Germination Rating ([1]; 10 ppm): 1 (10-40)
- Spore Germination Rating ([1]; 40 ppm): 1 (10-40)
- Spore Germination Rating ([2]; 1.0 ppm): 2 (40-60)
- Spore Germination Rating ([2]; 2.5 ppm): 2 (40-60)
- Spore Germination Rating ([2]; 10 ppm): 0 (0-10)
- Spore Germination Rating ([2]; 40 ppm): 0 (0-10)
- Spore Germination Rating ([3]; 1.0 ppm): 4 (80-100)
- Spore Germination Rating ([3]; 2.5 ppm): 4 (80-100)
- Spore Germination Rating ([3]; 10 ppm): 4 (80-100)
- Spore Germination Rating ([3]; 40 ppm): 4 (80-100)

Structure (SMILES): Cc1cc(Oc2nsnc(Cl)c2=O)cc(C)c1Br [Compound 60, 3-[(4-bromo-3,5-dimethyl)-phenoxy]-5-chloro-4H--1,2,6-thiadiazin-4-one]
- Spore Germination Rating ([1]; 1.0 ppm): 2 (40-60)
- Spore Germination Rating ([1]; 2.5 ppm): 1 (10-40)
- Spore Germination Rating ([1]; 10 ppm): 1 (10-40)
- Spore Germination Rating ([1]; 40 ppm): 0 (0-10)
- Spore Germination Rating ([2]; 1.0 ppm): 0 (0-10)
- Spore Germination Rating ([2]; 2.5 ppm): 0 (0-10)
- Spore Germination Rating ([2]; 10 ppm): 0 (0-10)
- Spore Germination Rating ([2]; 40 ppm): 0 (0-10)
- Spore Germination Rating ([3]; 1.0 ppm): 4 (80-100)
- Spore Germination Rating ([3]; 2.5 ppm): 4 (80-100)
- Spore Germination Rating ([3]; 10 ppm): 4 (80-100)
- Spore Germination Rating ([3]; 40 ppm): 3 (60-80)

Structure (SMILES): COc1cc(Oc2nsnc(Cl)c2=O)cc(OC)c1C(C)=O [Compound 61, 3-[(4-acetyl-3,5-dimethoxy)-phenoxy]-5-chloro-4H--1,2,6-thiadiazin-4-one]
- Spore Germination Rating ([1]; 1.0 ppm): 1 (10-40)
- Spore Germination Rating ([1]; 2.5 ppm): 1 (10-40)
- Spore Germination Rating ([1]; 10 ppm): 1 (10-40)
- Spore Germination Rating ([1]; 40 ppm): 0 (0-10)
- Spore Germination Rating ([2]; 1.0 ppm): 2 (40-60)
- Spore Germination Rating ([2]; 2.5 ppm): 1 (10-40)
- Spore Germination Rating ([2]; 10 ppm): 2 (40-60)
- Spore Germination Rating ([2]; 40 ppm): 0 (0-10)
- Spore Germination Rating ([3]; 1.0 ppm): 4 (80-100)
- Spore Germination Rating ([3]; 2.5 ppm): 3 (60-80)
- Spore Germination Rating ([3]; 10 ppm): 2 (40-60)
- Spore Germination Rating ([3]; 40 ppm): 2 (40-60)
